# Experiments:
# [1] = tested on: Lin-Sca+CD49fhigh cells (LSC cells); experiment: Freshly sorted LSC cells from PTENpc-/- mice: proliferation, prostatosphere formation, qPCR; assay type: cell-based, mouse; settings: Rac1 inhibitor EHT1864 (FIG. 3I)
# Method: FIG. 3I. Freshly sorted Lin^−Sca^+CD49f^high cells (LSC cells) from PTEN^pc−/− mice were used to measure the effect of EHT1864, mcr84 or sunitinib on cell proliferation and prostatosphere formation.
# FIG. 3J. Freshly sorted LSC cells from PTEN^pc−/− mice were treated with EHT1864 (20 μM) and expression of genes associated with stem cells and VEGF signaling was quantified by qPCR.
# (§1) Cell-based assays: The chemosensitivity of prostate cancer cells was determined using a standard 3-(4,5-dimethylthiazol-2-yl)-2,5-diphenyltetrazolium bromide (MTT) cytotoxicity assay. The assay was performed 72 hours after treatment. FACS was used to isolate cells based on their surface expression of CD44, CD24, and the α6 and β4 integrins. The detailed procedure for isolating LSC cells from PTEN^pc−/− mice using lineage markers (CD31, CD45, and Ter119), Sca-1, and CD49f is described, e.g., in Mulholland, D. J., Xin, L., Morim, A., Lawson, D., Witte, O., and Wu, H. 2009. Lin−Sca−1+CD49fhigh stem/progenitors are tumor-initiating cells in the Pten-null prostate cancer model. Cancer Res 69:8555-8562; Lawson, D. A., Xin, L., Lukacs, R. U., Cheng, D., and Witte, O. N. 2007. Isolation and functional characterization of murine prostate stem cells. Proc Natl Acad Sci USA 104:181-186.
# [2] = tested on: PTENpc-/- prostate tumors; experiment: Pten pc-/- transgenic mouse model of prostate cancer; assay type: in vivo; settings: for number of LSC cells: from 6 weeks of age
# Method: FIG. 4C. Six-week old Pten^pc−/− mice were injected (i.p.) with either mcr84 (10 mg/kg) or EHT1864 (10 mg/kg) twice weekly for three weeks. The GU tract was harvested and total weight was measured. The prostate glands were separated and combined weight of all the lobes was measured. The prostate glands were digested and LSC cells (Lin^−Sca^+CD49f^high) were isolated by FACS.
# FIG. 4D. Six-week old Pten^pc−/− mice were injected (i.p.) with either mcr84 (10 mg/kg) or EHT1864 (10 mg/kg) twice weekly for three weeks. The GU tract was harvested and total weight was measured. The prostate glands were separated and combined weight of all the lobes was measured.
# FIG. 4E. Hematoxylin and eosin (H&E) staining of prostate tumors from Pten^pc−/− mice described in FIG. 4C, and the percentage of prostate glands showing either PIN or well-differentiated adenocarcinoma (AdCa). Scale bar is 100 μm.
# FIG. 4F. TUNEL staining of tumor sections of prostate tumors from Pten^pc−/− mice described in FIG. 4C to detect apoptosis. Scale bar is 100 μm.
# FIG. 7C. Six-week old Pten^pc−/− mice were injected (i.p.) with either mcr84 (10 mg/kg) twice weekly for three weeks. The prostate glands were harvested and immunostained using a myc antibody.
# To pursue this hypothesis further, PTEN^pc−/− transgenic mice were treated with the Rac1 inhibitor (EHT1864), mcr84 or both at the start of puberty (6 weeks). […] We also compared the impact of mono- and combined therapy on PTEN^pc−/− tumors by calculating the weights of the isolated GU tracts and prostate lobes. […] Moreover, a mass of cells in the lumen of the gland was evident in mice that received the combined treatment. […] These tumor groups were also stained with CD31. Six-week old Ptenpc−/− mice were injected (i.p.) with either mcr84 (10 mg/kg) or EHT1864 (10 mg/kg) twice weekly for three weeks. The prostate glands were harvested and angiogenesis was analyzed using CD31 staining.
# [3] = tested on: PC3 and C4-2 sensitive and resistant cells; experiment: Prostatosphere formation; assay type: cell-based; settings: resistant cells (PC3-R); EHT1864 20 μM
# Method: FIG. 2B. Resistant and sensitive populations were analyzed for prostatosphere formation in the presence of either a NRP inhibitory peptide (c-furSEMA) or control peptide (c-SEMA).
# FIG. 3H. PC3-R cells were stimulated with VEGF in the presence or absence of a Rac1 inhibitor (EHT1864; 20 μM) and the effect on prostatosphere formation was measured.
# FIG. 6I. Prostatosphere formation by VEGF^high cells in the presence or absence of EHT1864 was quantified.
# PC3-R xenograft tumors = experiment: PC3-R xenografts in NSG mice; assay type: in vivo, mouse
# Method: FIGS. 4A-4F. Rac1 inhibition improves sensitivity to VEGF/VEGFR-targeted therapy. FIG. 4A. Tumor volume of mice that were treated with either control IgG or bevacuzimab. PC3-R cells were transfected with Rac1 shRNAs and these cells were implanted in NSG mice. Once tumors reached approximately 100 mm^3 in volume, mice were treated with either control IgG or bevacuzimab (10 mg/kg, intraperitoneally, twice weekly). Tumor volume was measured every third day.
# FIG. 4B. Terminal deoxynucleotidyl transferase dUTP nick end labeling (TUNEL) for control and treated PC3-R xenograft tumors that were harvested. Apoptosis was analyzed using TUNEL staining. Scale bar is 10 μm.
# [4] = tested on: androgen-independent prostate cancer; settings: bevacizumab monotherapy; cited from earlier work
# [5] = tested on: human prostate tumor cells; experiment: Sensitivity to bevacizumab of subpopulations sorted from freshly harvested prostate tumors (cell survival); assay type: cell-based
# Method: FIG. 1B. Four subpopulations isolated based on expression of CD44 and CD24 were analyzed for their sensitivity to bevacuzimab. The percentage of live cells in three different areas was determined and mean is plotted as cell survival.
# FIG. 1C. Cells from two human freshly harvested prostate tumors were sorted using ITGA6 and ITGB4 antibodies. The four subpopulations isolated based on expression of ITGA6 and ITGB4 were analyzed for their ability to form prostatospheres and sensitivity to bevacuzimab. The percentage of live cells in three different areas was determined and mean is plotted as cell survival.
# Isolation of human prostate tumor cells and laser capture microscopy (LCM): Human prostate tumor tissue was obtained from UMASS Cancer Center Tissue Bank in compliance with the Institutional Review Board of the University of Massachusetts Medical School. The discarded but freshly resected, prostate tumors were digested with collagenase at 37° C. and epithelial cells were isolated using an EpCaM antibody. Frozen sections were microdissected by laser capture microscopy (Arcturus PixCell 2) to obtain pure populations of tumor cells of defined Gleason grades. […] Quantitative real-time PCR was done using the Taqman assay kit (Applied Biosystems). […]
# ERK = ERK activation by immunoblotting with phospho-specific antibody; assay type: cell-based
# Method: FIG. 2D. PC3-S cells were serum-deprived overnight and stimulated with VEGF (50 ng/ml) for 30 minutes in the presence or absence of bevacuzimab (5 mg/ml). The activation of ERK was analyzed by immunoblotting using a phospho-specific antibody.
# FIG. 2F. Sensitive and resistant C4-2 cell lines were serum-deprived overnight and stimulated with VEGF (50 ng/ml) for 30 minutes in the presence of bevacuzimab (5 mg/ml). The activation of ERK and AKT was analyzed by immunoblotting using phospho-specific antibodies.
# FIG. 2G. Sensitive and resistant PC3 cell lines were serum-deprived overnight and stimulated with VEGF (50 ng/ml) for 30 minutes in the presence of bevacuzimab (5 mg/ml). The activation of ERK and AKT was analyzed by immunoblotting using phospho-specific antibodies.
# FIG. 6F. VEGF^high and VEGF^low cells were serum-deprived overnight and stimulated with VEGF (50 ng/ml) for 30 minutes in the presence or absence of bevacuzimab (5 mg/ml). The activation of ERK was analyzed by immunoblotting using a phospho-specific antibody.
# [6] = tested on: VEGFhigh and VEGFlow PC3 cells; experiment: Proliferation of VEGFhigh and VEGFlow cells; assay type: cell-based; settings: bevacizumab 1 mg/ml, sunitinib 20 μM, 72 hours
# Method: FIG. 6E. VEGF^high and VEGF^low cells were incubated with bevacuzimab (1 mg/ml) or sunitinib (20 μM) for 72 hours and their proliferation was assayed.
# NRP1 = NRP1 (Homo sapiens, UniProt O14786); experiment: Ability to block VEGF-A binding to NRP; settings: FIG. 9H
# Excerpt: FIG. 9H. Ability of VEGF antibodies to block VEGF-A binding to NRP.
# [7] = tested on: PC3 and C4-2 sensitive and resistant cells; experiment: Colony formation and MTT viability of sensitive and resistant cell lines; assay type: cell-based
# Method: FIG. 1F. PC3 and C4-2 resistant and sensitive cell lines were analyzed for colony formation in the presence or absence of 10 μM Pazopanib.
# FIG. 2C. Resistant and sensitive populations were analyzed for sensitivity to bevacuzimab (1 mg/ml) in the presence of either a NRP inhibitory peptide (c-furSEMA) or control peptide (c-SEMA).
# FIG. 8F. PC3 and C4-2 resistant and sensitive cell lines were cultured in the presence of pazopanib (10 μM) or DMSO for 72 hours and cell viability is analyzed using the MTT assay.
# FIG. 9D. PC3 and C4-2 resistant cells (10^3 cells per 60 mm plate) were cultured in the presence of either c-SEMA or c-furSEMA (1 μM), control IgG or NRP2 inhibitory antibody (1 μg/ml), or their respective controls for 10 days and colonies were stained with crystal violet. Colonies with more than 50 cells were counted.
# as §1
# The resistant cell lines generated are referred to as PC3-R and C4-2R. As controls, we also exposed these cell lines to control IgG (hIgG) and DMSO and refer to these as sensitive cell lines (PC3-S and C4-2S) (FIGS. 1D-1E).
# [8] = 10 mg/kg i.p. twice weekly for three weeks
# [9] = Rac1-depleted (shRNA) PC3-R xenografts plus bevacizumab
compound,measurement,setting,value
O=c1cc(CN2CCOCC2)occ1OCCCCCSc1ccnc2cc(C(F)(F)F)ccc12 [EHT1864],sensitivity of LSC cells to mcr84 and sunitinib,[1],increased the sensitivity of LSC cells
same,angiogenesis (CD31 staining),[2]; [8],No significant difference in staining
same,number of LSC cells,[2]; [8],reduced the number of LSC cells significantly
same,number of LSC cells,"[2]; 10 mg/kg i.p. twice weekly for three weeks, listed as RACi",significantly reduced
same,pathological examination of prostate tumors (PIN or adenocarcinoma),[2]; H&E staining,progressed to well-differentiated adenocarcinomas
same,number of prostatospheres,[3],reduced the number of prostatospheres
bevacizumab,apoptosis in residual tumors (TUNEL),PC3-R xenograft tumors; [9],contained mostly apoptotic cells
same,tumor volume,PC3-R xenograft tumors; [9],significantly better decrease in tumor volume
same,tumor growth,"PC3-R xenograft tumors; control PC3-R xenografts, bevacizumab alone, 10 mg/kg i.p. twice weekly",no significant effect on tumor growth
same,patients exhibiting a decline in PSA,[4],27%
same,response based on RECIST criteria,[4],no response noted
same,resistance to bevacizumab treatment (cell survival),[5]; CD44+CD24- (P1) subpopulation versus other subpopulations,the only subpopulation that exhibited resistance
same,resistance to bevacizumab treatment (cell survival),[5]; high CD49f population compared to low CD49f population,exhibited resistance
same,basal ERK activation,ERK; VEGFhigh cells,resistant
same,VEGF-induced ERK activation,ERK; VEGFlow cells,inhibited
same,ERK activation,"ERK; resistant cells, bevacizumab 5 mg/ml",unable to inhibit ERK activation
same,resistance of VEGFhigh cells compared to VEGFlow cells (proliferation),[6],more resistant
same,blocking of the binding of VEGF-A to NRP1,NRP1,Neither mcr84 nor bevacizumab blocked
same,sensitivity of resistant cells after down-regulation of P-Rex1,"[7]; PC3-R cells with P-Rex1 shRNA, bevacizumab 1 mg/ml, sunitinib 20 μM",increased their sensitivity
same,sensitivity to bevacizumab after down-regulation of NRP2 or NRP1,"[7]; PC3-R cells, shRNA",increased sensitivity
same,ability of the resistant cell lines to form colonies or survive,"[7]; PC3-R, C4-2R, bevacizumab 1 mg/ml, sunitinib 20 μM, 10 days colonies, 72 hours MTT",Neither bevacizumab nor sunitinib inhibited
same,resistance to inhibition of viability and prostatosphere formation after expression of constitutively active MEK,[7]; sensitive cells,increased their resistance
same,resistance to bevacizumab after ectopic expression of NRP2,"[7]; sensitive cells, in the presence of VEGF",induces resistance
